This is an account of results in patent US4785080A, “Labeled analytes” (Baker Instruments Corporation, priority 1985, dated 1988).

Values joined by “and” are separate entries in the source; they are usually repeats but may differ in a detail not shown here. Equal entries are not always repeated.

Assay type in all cases: binding
Test [1] has as its system dilantin antibody. Nature of the test: Homogeneous immunoassay of dilantin standards and clinical samples, automatic data reduction (Example XXI). The conditions noted are these: human serum. The procedure:
This Example illustrates the design of an assay capable of directly assaying clinical samples, the use of the automatic pipetter (Model P-500) associated with the Centrifichem® 500 centrifugal fast analyzer, and the use of automatic data reduction.
The following reagents were utilized:
a. Labeled Analyte: Dilantin-S-peptide labeled analyte in 0.1 M triethanolamine (TEA)-HCl buffer, prepared in the manner described in Examples V-VIII was used.
b. Antibody: Anti-dilantin antiserum (150 ul) was diluted with 900 ul of 0.1M TEA-HCl buffer of pH 7.1;
c. Substrate: 5'-O-acetyl 2'-O-(tetrahydro pyran-2-yl) uridine 3'-(4-methylumbelliferone-7-yl ammonium phosphate) (6.4 mg) was added to 285.2 ul of 0.05N HCl and stirred at room temperature for 30 minutes. Sodium acetate buffer (714.8 ul, 0.1M, pH 5.0) was then added;
S-protein: A 12.3×10^-5 M solution of Sigma S-protein was made up in 0.1M TEA-HCl buffer (pH 7.1);
e. Dilantin standards: Solutions of 5, 5-diphenylhydantoin sodium salt (Sigma lot 64C-0027) were made up in human serum at concentrations of 2.5, 5.0, 10.0, 20.0 and 30.0 ug/ml.
A mixture of 16 ul S-peptide labeled analyte, 10 ul of human serum albumin, 1430 ul of TEA-HCl buffer, and the substrate solution described in (c.) was prepared (designated Reagent 1). A second mixture consisting of 150 ul of antiserum, 50 ul of S-protein, and 1937.5 ul of TEA buffer was prepared (designated Reagent 2). Using the CentrifiChem® P-500 automatic pipetter, 4 ul of the appropriate standard solution was simultaneously diluted with 45 ul of deionized H2 O and pipetted into the sample well of transfer disc. At the same time, the pipetter delivered 250 ul of Reagent 1 into the reagent well and 100 ul of Reagent 2 into the sample well. Instrumental parameters for the CentrifiChem® 500 centrifugal fast analyzer were the same as that for Example XX with the exception that Test Code 29 was used. This provides for automatic data reduction by the microprocessor unit of the CentrifiChem® 500 instrument.

For test [2], the system named is dilantin antibody. Nature of the test: Heterogeneous double antibody solid phase immunoassay of dilantin, free phase catalytic activity (Example XXII). The procedure:
A standard displacement curve is generated from the catalytic activity measurement using 5'-O-acetyluridyl-3'-(4-methylumbelliferone-7-yl) phosphate as a fluorogenic substrate for determination of analyte concentration of the control serum.
(§1) The following reagents were prepared:
a. Dilantin-S-peptide labeled analyte: Labeled analyte in TEA-HCl buffer was prepared in the manner described in Examples V-VIII; 120 ul was diluted with 2860 ul of TEA-HCl buffer.
b. Antibody: Anti-dilantin antisera (300 ul) was diluted with 1800 ul of TEA-HCl buffer.
c. Solid phase immobilized second antibody: Bio-Rad IMMUNOBEAD™, Lot 17003, 50 mg was reconstituted with 50 ml of TEA-HCl buffer.
d. Substrate: 5'-O-acetyl-2'-O-(tetrahydropyran-2-yl) uridyl-3'-(4-methylumbelliferone-7-yl) ammonium phosphate, 35 mg, was deblocked with 1.5 ml of 0.025M HCl for 40 minutes at room temperature and extracted twice with 5 ml of ether. The residual ether was removed by the stream of air and the acidic solution was buffered with acetate buffer to 100 ml.
e. Acetate buffer: Sodium acetate buffer, 0.1M, pH 5.0.
f. TEA-HCl buffer: Triethanolamine-HCl buffer, 0.05M, pH 7.5.
g. […]
h. S-protein: Sigma purified solution was diluted 1/20 in acetate buffer.
[…] Antibody aliquots of 100 ul were pipetted into each duplicate tube of standards and the resulting mixtures were vortexed and incubated for 20 minutes at room temperature. Dilantin-S-peptide labeled analyte aliquots of 100 ul each were then pipetted into all tubes. The resulting mixture was incubated for 20 mintes at room temperature.
TEA-HCl buffer (108 ul), and Dilantin-S-peptide labeled analyte (100 ul) were pipetted into duplicate assay tubes labeled total. The resulting mixtures were mixed by vortexing and incubated for 20 minutes at room temperature.
Next a second antibody solution of 500 ul each was pipetted into all tubes except for total assay tubes. TEA-HCl buffer (500 ul) was pipetted into total assay tubes. The resulting mixtures were mixed by vortexing and were incubated for 60 minutes at room temperature. All assay tubes except total were centrifuged for 5 minutes at 3000 rpm at 5°-10° C.
The supernatant (free phase) of each tube was transferred into new tubes marked accordingly. The solid phase was resuspended with 0.5 ml of TEA buffer in each tube and centrifuged as above. The supernatant was decanted off.
Dose responsive catalytic activity was measured as follows:
An aliquot sample (50 ul each) of the free phase and total were assayed respectively with 1.8 ml of substrate and 50 ul of S-protein, measuring the fluorogenic product formation by emission at 440 nm when the mixture was excited at 325 nm, using a. Farrand Mark 1 fluorimeter.
The raw data were fit by a modified log-logit algorithm where the rates at infinite and 0 standard concentrations are obtained by an iterative procedure. Each data point in the Table represents the mean of duplicate points.

Test [3] concerns dilantin antibody. Description: Reference displacement curve for dilantin, colorimetric, CentrifiChem 500 (Example XX). The procedure: This Example illustrates the generation of a reference displacement curve for the dilantin analyte on the CentrifiChem®500 centrifugal fast analyzer. A […] substrate, 5'-O-acetyl-uridine-3'(4-methylumbelliferone-7-yl phosphate), was used.
as §1
a. Dilantin S-peptide labeled analyte: Material prepared in the manner described in Examples V-VIII in 0.1M triethanolamine (TEA)-HCl buffer was used.
b. Antibody: Anti-dilantin antisera was diluted by a factor of 1/20 with 0.1M TEA-HCl buffer of pH 7.1;
c. Substrate: Seventeen milligrams of 5'-O-acetyl 2'-O-(tetrahydropyran-2-yl) uridine 3'-(4-methylumbelliferone-7-yl ammonium phosphate) was added to 750 ul 0.05N HCl and stirred at room temperature for 30 min. Sodium acetate buffer, (1.880 ml, 0.1M, pH 5..0), was added. Just before use, 300 ul of this solution was combined with 5.094 ml of 0.1M TEA-HCl buffer of pH 7.1;
d. S-protein: Sigma purified commercial material was diluted by a factor of 1:100 with 0.1M TEA-HCl buffer of pH 7.1 to give a solution having a concentration of 1.53×10^-6 M;
e. Dilantin standards: A stock solution of 5,5-diphenylhydantoin sodium salt (Sigma Lot 64C-0027) was made up by dissolving 48 mg in 1 liter of 0.025N sodium hydroxide. This was diluted by a factor of 1:10 with 0.025N sodium hydroxide to give a solution having 4.8 ug/ml. This was further diluted to give standard solutions having concentrations of 19.1, 47.8, 95.8, 143.6, and 191.5 ng/ml.
The CentrifiChem® 500 centrifugal fast analyzer had the following instrument settings: rotor temp, 30°; filter, nm; To, 10 sec; T, 1 min; ABS 1.0 u; Blank, hold; test mode, Term; print out, ABS; conc. factor, 0; test code 0.
Antibody, dilantin-S-peptide and 16.6 ul of the standard solution were pipetted into the sample well of channels to 16 of the transfer disc. S-protein and 300 ul of substrate were pipetted into each of the corresponding reagent wells of the transfer disc. The transfer disc was placed on the rotor and spun. […] Catalytic activity rates (a.u./min) were obtained frcm a least squares, regression analysis of absorbances as a function of time.

For the compound `O=C1NC(=O)C(c2ccccc2)(c2ccccc2)N1` [dilantin, 5,5-diphenylhydantoin], the “10^3 Response” value with dilantin antibody [1] (standard 2.5 ug/ml) is 230 a.u. and 231 a.u; with dilantin antibody [1] (standard 5 ug/ml), 252 a.u. and 256 a.u; in the test on dilantin antibody [1] (standard 10 ug/ml), 358 a.u. and 373 a.u; in the test with dilantin antibody [1] (standard 20 ug/ml) it was 512 a.u. and 494 a.u; in the test with dilantin antibody [1] (standard 30 ug/ml), 525 a.u. and 524 a.u. The “Rate, Mean” value with dilantin antibody [2] (standard 2.5 (ug/ml)) worked out at 10.0 na/min; in the test on dilantin antibody [2] (standard 5.0 (ug/ml)), 10.5 na/min; with dilantin antibody [2] (standard 10.0 (ug/ml)), 14.0 na/min; in the test with dilantin antibody [2] (standard 20.0 (ug/ml)) it was 16.5 na/min; in the test with dilantin antibody [2] (standard 30.0 (ug/ml)) it was 19.0 na/min; in the test with dilantin antibody [2] (standard 40.0 (ug/ml)), 20.5 na/min. The Rate in the test with dilantin antibody [3] (standard 19.1 ng/ml) is 0.0154 a.u./min and 0.0171 a.u./min; in the test with dilantin antibody [3] (standard 47.8 ng/ml), 0.0183 a.u./min and 0.0158 a.u./min; with dilantin antibody [3] (standard 95.8 ng/ml), 0.0191 a.u./min and 0.0197 a.u./min; in the test on dilantin antibody [3] (standard 143.6 ng/ml), 0.0204 a.u./min and 0.0180 a.u./min; in the test with dilantin antibody [3] (standard 191.5 ng/ml), 0.0209 a.u./min and 0.0205 a.u./min.
